Experimental data reported in patent US20230000842A1, “METHODS OF TREATING CARTILAGE DISORDERS THROUGH INHIBITION OF CLK AND DYRK” (SAMUMED, LLC, priority 2019, published 2023).
pEC50: −log10 of the molar value.

What was measured:
[1] = tested on: Wnt pathway activity (SW480 colon carcinoma cells stably expressing the Sp5-Luc reporter); experiment: Wnt pathway activity screening assay (Sp5-Luc reporter gene assay); conditions: Homo sapiens, SW480, Table 4; SW480 cells stably expressing Sp5-Luc reporter, 10-point dose-response from 10 μM, 36 to 48 hours
CLK2 kinase = CLK2 kinase (Homo sapiens, UniProt P49760); experiment: CLK2 kinase activity assay (Z-lyte FRET); type: biochemical; conditions: Z-lyte Ser/Thr 6 peptide, 60 μM ATP, 1 h at room temperature;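 note: FRET read-out as coumarin to fluorescein emission ratio, unphosphorylated peptide as 0% and phosphorylated peptide as 100% controls, duplicate reactions, non-linear regression fit of dose-response curves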
CLK2 kinase, sequence (P49760 whole entry): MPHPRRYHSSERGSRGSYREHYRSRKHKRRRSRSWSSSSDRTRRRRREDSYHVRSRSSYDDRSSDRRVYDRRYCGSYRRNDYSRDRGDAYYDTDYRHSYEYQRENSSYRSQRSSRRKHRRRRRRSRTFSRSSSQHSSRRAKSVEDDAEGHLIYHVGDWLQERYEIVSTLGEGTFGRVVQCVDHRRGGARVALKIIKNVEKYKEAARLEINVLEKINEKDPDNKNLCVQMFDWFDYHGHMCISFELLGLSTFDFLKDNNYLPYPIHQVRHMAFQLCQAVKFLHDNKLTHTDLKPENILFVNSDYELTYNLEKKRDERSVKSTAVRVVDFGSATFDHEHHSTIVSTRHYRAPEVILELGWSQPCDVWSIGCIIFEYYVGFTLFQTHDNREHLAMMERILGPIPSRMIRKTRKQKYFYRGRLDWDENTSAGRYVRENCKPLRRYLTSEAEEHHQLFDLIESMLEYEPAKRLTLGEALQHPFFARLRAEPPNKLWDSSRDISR
Method: This is a non-radioactive assay using fluorescence resonance energy transfer (FRET) between coumarin and fluorescein to detect kinase activity which is represented as a ratio of coumarin emission/fluorescein emission.
The mixture was allowed to incubate with the representative compounds for one hour at room temperature. All reactions were performed in duplicate. Unphosphorylated (“0% Control”) and phosphorylated (“100% control”) forms of Ser/Thr 6 served as control reactions. Additionally, an 11-point dose-response curve of Staurosporine (1 μM top) was run to serve as a positive compound control.
After incubation, Development Reagent A was diluted in Development Buffer then added to the reaction and allowed to further incubate for one hour at room temperature.
Dose-response curves were generated and inhibitory concentration (IC50) values were calculated using non-linear regression curve fit in the Dotmatics' Studies Software (Bishops Stortford, UK).

[2] = tested on: primary human mesenchymal stem cells (hMSCs); experiment: Chondrogenesis screening using primary human mesenchymal stem cells; type: cell-based; conditions: Homo sapiens, Mesenchymal stem cells, hMSC chondrogenesis; for Emax: maximum activity relative to TGF-β3 (10 ng/mL) positive control, read-out: Max. Activity as % TGF-β3 activity; for EC50: concentration required to induce 50% levels of chondrogenesis with TGF-β3 as positive control, read-out: Conc (nM) of 50% TGF-β3 activity
Source text: Representative compounds were screened using primary human mesenchymal stem cells (hMSCs) to determine their ability to induce chondrogenesis (process by which cartilage is developed).
Human Mesenchymal Stem Cell Culture: Primary human mesenchymal stem cells (hMSCs) were purchased from Lonza (Walkersville, Md.) and expanded in Mesenchymal Stem Cell Growth Media (Lonza). Cells between passage 3 and 6 were used for the experiments.
Area of nodules in each well was normalized to the average of 3 DMSO treated wells on the same plate using Excel (Microsoft Inc.). The normalized averages (fold change over DMSO) of 2 or 3 replicate wells for each compound concentration were calculated. Due to solubility limitations of some of the compounds, curve fitting was incomplete leading to inaccurate EC50 determinations.
Using TGF-β3 as a positive control, the concentration of representative compounds required to induce 50% levels of chondrogenesis is reported. In addition, the maximum activity of each compound and the respective dose that each compound reached maximum chondrogenesis activity is reported.

CLK3 kinase = CLK3 kinase (Homo sapiens, UniProt P49761); experiment: CLK3 kinase activity assay (Z-lyte FRET); type: biochemical; conditions: Z-lyte Ser/Thr 18 peptide, 156 μM ATP, 1 h at room temperature;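 note: kinase activity read as coumarin/fluorescein emission ratio by FRET, unphosphorylated peptide as 0% and phosphorylated peptide as 100% control, values from non-linear regression of dose-response curves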
CLK3 kinase, sequence (P49761 whole entry): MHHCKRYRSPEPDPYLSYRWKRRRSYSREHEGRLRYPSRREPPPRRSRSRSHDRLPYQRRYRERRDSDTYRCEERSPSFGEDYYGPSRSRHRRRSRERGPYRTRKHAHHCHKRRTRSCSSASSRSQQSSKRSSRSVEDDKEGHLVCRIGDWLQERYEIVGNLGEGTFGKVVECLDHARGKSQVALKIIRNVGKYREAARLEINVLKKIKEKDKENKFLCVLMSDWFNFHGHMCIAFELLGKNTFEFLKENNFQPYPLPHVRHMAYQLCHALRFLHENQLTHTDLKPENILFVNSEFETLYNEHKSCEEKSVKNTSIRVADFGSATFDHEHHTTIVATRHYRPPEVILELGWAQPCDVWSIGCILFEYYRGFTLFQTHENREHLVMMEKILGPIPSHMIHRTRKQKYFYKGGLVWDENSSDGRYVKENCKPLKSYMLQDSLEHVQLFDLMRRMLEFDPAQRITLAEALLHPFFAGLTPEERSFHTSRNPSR

`O=C(Nc1ccc(OCCN2CCCC2)nc1)c1n[nH]cc1C#Cc1cccnc1` [compound 28] gave a pEC50 [1] of 6.39, a pEC50 (CLK2 kinase) of 7.34 and an Emax [2] of 68.8%.
`COc1cncc(C#Cc2c[nH]nc2C(=O)Nc2ccc(N3CCNCC3)nc2)c1` [compound 29] showed a pEC50 [1] of less than 5.00, a pEC50 (CLK2 kinase) of 7.60 and an Emax [2] of 74.7%.
`Fc1cccc(-c2cncc3[nH]c(-c4n[nH]cc4C#Cc4cncc(OC5CCNCC5)c4)nc23)c1` [compound 33] gave a pEC50 [1] of 5.33, a pEC50 (CLK3 kinase) of 6.83 and a pEC50 (CLK2 kinase) of 8.52.
Molecule `Cc1n[nH]c2cc(F)c(-c3cncc(CN4CCCCC4)n3)cc12` [compound 40] has a pEC50 [1] of 5.61, a pEC50 (CLK3 kinase) of 5.62 and a pEC50 (CLK2 kinase) of 7.35.
For `Cc1n[nH]c2ccc(-c3cncc(NN4CCNCC4)n3)cc12` [compound 41], the pEC50 [1] was 6.59, the pEC50 (CLK3 kinase) was 5.85 and the pEC50 (CLK2 kinase) was 9.00.
In the case of `Cc1n[nH]c2ccc(-c3cncc(NC4CCNC[C@@H]4F)n3)cc12` (stereo partly drawn) [compound 42], the pEC50 [1] was 7.07 and the Emax [2] was 25.6%.
For `Cc1n[nH]c2ccc(-c3cncc(OC4CCNC[C@@H]4F)n3)cc12` (stereo partly drawn) [compound 44], the pEC50 [1] was 6.20, the EC50 [2] was 100 nM and the Emax [2] was 44.9%.
Work on `Cc1n[nH]c2ccc(-c3cncc(OC4CCNC[C@H]4F)n3)cc12` (stereo partly drawn) [compound 45] yielded a pEC50 [1] of 6.08, an EC50 [2] of 30 nM and an Emax [2] of 54.2%.
In the case of `Cc1n[nH]c2ccc(-c3cncc(OC4CCNCC4(F)F)n3)cc12` (stereo not drawn) [compound 47], the pEC50 [1] was 6.64, the EC50 [2] was 300 nM and the Emax [2] was 82.1%.
`CN(C)C(=O)Nc1cncc(-c2ccc3[nH]nc(C(=O)Nc4cccnc4)c3c2)c1` [compound 54] gave a pEC50 [1] of 6.75, a pEC50 (CLK3 kinase) of 7.70 and a pEC50 (CLK2 kinase) of 9.00.
Molecule `CN1CCN(c2ccc(NC(=O)c3n[nH]c4ccc(-c5cncc(NC(=O)C6CC6)c5)cc34)cn2)CC1` [compound 55] has a pEC50 [1] of 7.10, a pEC50 (CLK3 kinase) of 7.89 and a pEC50 (CLK2 kinase) of 9.00.
`O=C(Nc1cccnc1)c1n[nH]c2ccc(-c3cncc(NC(=O)N4CCOCC4)c3)cc12` [compound 56] showed a pEC50 [1] of 5.90, a pEC50 (CLK3 kinase) of 7.33 and a pEC50 (CLK2 kinase) of 8.40.
Work on `COc1cncc(-c2ccc3[nH]nc(-c4nc5c(-c6cccc(F)c6)cncc5[nH]4)c3n2)c1` [compound 149] yielded a pEC50 (CLK3 kinase) of 7.19, a pEC50 (CLK2 kinase) of 8.70 and an EC50 [2] of 20.6 nM. It also gave an Emax [2] of 55.5%.
Work on `COc1cncc(-c2ccc3[nH]nc(-c4nc5c(-c6cccc(F)c6)ccnc5[nH]4)c3n2)c1` [compound 150] yielded a pEC50 (CLK3 kinase) of 7.05, a pEC50 (CLK2 kinase) of 8.52 and an Emax [2] of 47%.
For `Fc1cccc(-c2cncc3[nH]c(-c4n[nH]c5ccc(-c6cn[nH]c6)nc45)nc23)c1` [compound 154], the pEC50 [1] was less than 5.00, the pEC50 (CLK2 kinase) was 8.52 and the EC50 [2] was 20.6 nM. It also gave an Emax [2] of 51.8%.
With `c1cc(-c2cncc3[nH]c(-c4n[nH]c5ccc(-c6cncc(CNCC7CCCC7)c6)cc45)nc23)cs1` [compound 250] the pEC50 [1] was 7.24, the pEC50 (CLK2 kinase) was 8.40 and the EC50 [2] was 100 nM. For the same molecule, the Emax [2] was 167%.
In the case of `CN(C)Cc1cncc(-c2cnc3[nH]nc(-c4nc5c(-c6ccsc6)cccc5[nH]4)c3c2)c1` [compound 251], the pEC50 [1] was 7.49, the pEC50 (CLK3 kinase) was 7.17 and the EC50 [2] was 300 nM. The Emax [2] was 105%.
`CN(C)CCOc1cncc(-c2cc3c(-c4cc5c(-c6ccc(F)cc6)nccc5[nH]4)n[nH]c3cn2)c1` [compound 318] gave a pEC50 [1] of 5.52, a pEC50 (CLK2 kinase) of 7.72 and an EC50 [2] of 900 nM. For the same molecule, the Emax [2] was 113%.
For `Nc1cncc(-c2cc3c(-c4cc5c(-c6ccccc6F)ccnc5[nH]4)n[nH]c3cn2)c1` [compound 325], the pEC50 [1] was less than 5.00, the pEC50 (CLK2 kinase) was 8.40 and the Emax [2] was 32.4%.
`CC(C)Nc1cncc(-c2cnc3[nH]nc(-c4cc5c(-c6ccccc6F)ccnc5[nH]4)c3c2)c1` [compound 333] was tested, and the pEC50 [1] was less than 5.00, the pEC50 (CLK2 kinase) was 7.70 and the EC50 [2] was 10 nM. The Emax [2] was 81.6%.
`Cc1ccncc1-c1ccc2[nH]nc(-c3cc4c(-c5ccncc5)ccnc4[nH]3)c2n1` [compound 376] showed a pEC50 [1] of less than 5.00, a pEC50 (CLK2 kinase) of 7.96 and an EC50 [2] of 300 nM. It also gave an Emax [2] of 56.5%.
With `Nc1cncc(-c2cnc3[nH]nc(-c4cc5c(-c6ccncc6)ccnc5[nH]4)c3c2)c1` [compound 380] the pEC50 [1] was less than 5.00, the pEC50 (CLK2 kinase) was 8.30 and the Emax [2] was 11.9%.
`Nc1cncc(-c2cc3c(-c4cc5c(-c6ccncc6)cncc5[nH]4)n[nH]c3cn2)c1` [compound 381] showed a pEC50 [1] of less than 5.00, a pEC50 (CLK2 kinase) of 8.52 and an EC50 [2] of 10 nM. The Emax [2] was 52%.
Molecule `CCCC(=O)Nc1cncc(-c2cnc3[nH]nc(-c4cc5c(-c6ccncc6)ccnc5[nH]4)c3c2)c1` [compound 384] has a pEC50 [1] of 6.00, a pEC50 (CLK3 kinase) of 7.00 and an EC50 [2] of 30 nM. It also gave an Emax [2] of 50.3%.
`O=C(CC1CCNCC1)Nc1cncc(-c2cnc3[nH]nc(-c4cc5c(-c6ccncc6)ccnc5[nH]4)c3c2)c1` [compound 393] gave a pEC50 [1] of less than 5.00, a pEC50 (CLK2 kinase) of 8.22 and an Emax [2] of 26.7%.
`c1cc(-c2ccnc3[nH]c(-c4n[nH]c5ccc(-c6cncc(CNCC7CCCC7)c6)nc45)cc23)ccn1` [compound 396] was tested, and the pEC50 [1] was less than 5.00, the pEC50 (CLK2 kinase) was 7.92 and the EC50 [2] was 100 nM. The Emax [2] was 67.2%.
`CN(C)c1cncc(-c2cnc3[nH]nc(-c4cc5c(-c6ccncc6)cncc5[nH]4)c3c2)c1` [compound 397] gave a pEC50 [1] of less than 5.00, a pEC50 (CLK2 kinase) of 8.52 and an Emax [2] of 191%.
`c1cc(-c2ccnc3[nH]c(-c4n[nH]c5ccc(-c6cncc(OCCN7CCCC7)c6)nc45)cc23)ccn1` [compound 404] was tested, and the pEC50 [1] was less than 5.00, the pEC50 (CLK2 kinase) was 8.30 and the Emax [2] was 39.6%.
For `c1cc(-c2ccnc3[nH]c(-c4n[nH]c5ccc(-c6cncnc6)cc45)cc23)ccn1` [compound 405], the pEC50 [1] was less than 5.00, the pEC50 (CLK2 kinase) was 8.52 and the Emax [2] was 17.3%.
`O=C(Nc1cncc(-c2cnc3[nH]nc(-c4cc5cccnc5[nH]4)c3c2)c1)c1ccccc1` [compound 436] showed a pEC50 [1] of less than 5.00, a pEC50 (CLK2 kinase) of 8.10 and an Emax [2] of 21.8%.
For `Cn1cc(-c2cnc3[nH]nc(-c4cc5cccnc5[nH]4)c3c2)cn1` [compound 454], the pEC50 [1] was less than 5.00, the pEC50 (CLK2 kinase) was 8.52 and the EC50 [2] was 300 nM. The Emax [2] was 51.7%.
`CN1CCN(c2cccc3[nH]c(-c4n[nH]c5ncc(-c6cncc(CN7CCCCC7)c6)cc45)cc23)CC1` [compound 494] gave a pEC50 (CLK3 kinase) of 6.01, a pEC50 (CLK2 kinase) of 7.92 and an EC50 [2] of 300 nM.
`CN1CCN(c2ccnc3[nH]c(-c4n[nH]c5ccc(-c6cn[nH]c6)nc45)cc23)CC1` [compound 498] was tested, and the pEC50 [1] was less than 5.00, the pEC50 (CLK2 kinase) was 8.52 and the EC50 [2] was 300 nM. The Emax [2] was 60.1%.
With `CN1CCN(c2cc(C(=O)Nc3cc4cc(-c5cnn(C)c5)ccc4cn3)ccn2)CC1` [compound 545] the Emax [2] was 27.1%.
Work on `CNC(=O)c1ccc(C(=O)Nc2cc3cc(-c4cn(C)nn4)ccc3cn2)cn1` [compound 577] yielded a pEC50 (CLK3 kinase) of 7.25 and a pEC50 (CLK2 kinase) of 8.52.
Molecule `Cn1cncc1-c1ccc2cnc(NC(=O)c3ccnc(N4CC(N)C4)c3)cc2c1` [compound 581] has a pEC50 (CLK3 kinase) of 7.96 and a pEC50 (CLK2 kinase) of 8.70.
For `O=C(Cc1ccccc1)Nc1cncc(-c2ccc3[nH]nc(-c4nc5c(-c6ccncc6)ccnc5[nH]4)c3n2)c1` [compound 626], the pEC50 [1] was less than 5.00 and the pEC50 (CLK2 kinase) was 8.15.
In the case of `COc1cccc(-c2cncc3[nH]c(-c4n[nH]c5ccc(-c6cn[nH]c6)nc45)nc23)c1` [compound 633], the pEC50 [1] was less than 5.00 and the pEC50 (CLK2 kinase) was 8.52.
With `CN1CC2CCC(C1)N2C(=O)Nc1cc2cc(-c3cnn(C)c3)ccc2cn1` [compound 638] the pEC50 [1] was less than 5.00 and the pEC50 (CLK2 kinase) was 5.95.
In the case of `O=C(Nc1cc2cc(-c3cnco3)cnc2cn1)[C@H]1CC[C@H](CO)CC1` [compound 640], the pEC50 [1] was less than 5.00 and the pEC50 (CLK2 kinase) was 5.13.
